Where a name gives a salt, the structure may show the parent alone. Read-outs that look alike come from different tables or passages of the source.
Experiments:
[1] = tested on: fibrin-induced microglia activation; experiment: Image-based assay of fibrin-induced microglia activation (HTS and dose response); type: cell-based, rat; settings: for inhibition at 10 µM: read-out: Fibrin % inhibition
[2] = tested on: LPS-induced microglia activation; experiment: Image-based assay of LPS-induced microglia activation (HTS and dose response); type: cell-based, rat
[3] = tested on: fibrin- and LPS-induced microglia activation; experiment: cells; type: cell-based, rat
[4] = tested on: primary rat microglia;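 as to Fibrin % cell toxicity: share of dead cells sized under 150 µm2 at 10 µM in fibrin-stimulated microglia HTS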
[5] = tested on: primary rat microglia; remark: listed apart in the source;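 as to Fibrin % cell toxicity: share of dead cells sized under 150 µm2 at 10 µM in fibrin-stimulated microglia HTS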
[6] = Rattus norvegicus, Microglia, primary microglia HTS, 10 μM, fibrin-stimulated, cell size >800 μm^2 as marker of activation
[7] = Rattus norvegicus, Microglia, primary microglia HTS, 10 μM, LPS-stimulated, cell size >800 μm^2 as marker of activation; read-out: LPS % inhibition
[8] = HTS of 1907 compounds, quadrant by fibrin and LPS inhibition
[9] = Rattus norvegicus, Microglia, primary HTS, 10 μM, fibrin-stimulated primary microglia
[10] = Rattus norvegicus, Microglia, primary HTS, 10 μM, LPS-stimulated primary microglia; read-out: LPS % inhibition
[11] = Rattus norvegicus, Microglia, primary microglia HTS, fibrin stimulation, increased cell size (>800 μm^2) as marker of activation
[12] = Rattus norvegicus, Microglia, 48 h, primary microglia HTS, LPS stimulation; increased cell size (>800 μm^2) as marker of activation; read-out: LPS % inhibition
[13] = quadrant by fibrin and LPS inhibition in HTS of 1907 compounds
[14] = Rattus norvegicus, Microglia, read-out: LPS % inhibition
[15] = Rattus norvegicus, Microglia, primary microglia HTS, fibrin stimulation, cell size >800 μm2 as marker of activation
[16] = Rattus norvegicus, Microglia, 48 h; read-out: LPS % inhibition
[17] = classification by fibrin and LPS inhibition in HTS

## Cc1c(Cl)cccc1Nc1ccccc1C(=O)O [Tolfenamic Acid]
[1]; [6]
  inhibition at 10 µM: 3%
[2]; [7]
  inhibition at 10 µM: 36%
[3]; [8]
  Quadrant (FIG. 5b): Q4
[4]; rat
  Fibrin % cell toxicity: 1%
[5]; rat
  LPS % cell toxicity: 1%

## O=c1[nH]c(=O)n([C@H]2C[C@H](O)[C@@H](CO)O2)cc1C(F)(F)F [Trifluridine]
[1]; [6]
  inhibition at 10 µM: 10%
[2]; [7]
  inhibition at 10 µM: 16%
[3]; [8]
  Quadrant (FIG. 5b): Q4
[4]; rat
  Fibrin % cell toxicity: 1%
[5]; rat
  LPS % cell toxicity: 1%

## Oc1c(Cl)cc(Cl)c2cccnc12 [Chloroxine]
[1]; [9]
  inhibition at 10 µM: -17%
[2]; [10]
  inhibition at 10 µM: 8%
[3]; primary HTS, 10 μM
  Quadrant (FIG. 5b): Q4
[4]; rat
  Fibrin % cell toxicity: 1%
[5]; rat
  LPS % cell toxicity: 0%

## O=C1CN(/N=C/c2ccc(-c3ccc([N+](=O)[O-])cc3)o2)C(O)=N1 [Dantrolene]
[1]; Rattus norvegicus, Microglia, primary microglia HTS, fibrin stimulation, compounds at 10 μM
  inhibition at 10 µM: -6%
[2]; Rattus norvegicus, Microglia, primary microglia HTS, LPS stimulation, compounds at 10 μM; read-out: LPS % inhibition
  inhibition at 10 µM: 14%
[3]; classification by fibrin and LPS inhibition, HTS at 10 μM
  Quadrant (FIG. 5b): Q4
[4]; rat
  Fibrin % cell toxicity: 1%
[5]; rat
  LPS % cell toxicity: 0%

## Nc1ccn([C@H]2CC[C@@H](CO)O2)c(=O)n1 [Zalcitabine]
[1]; [6]
  inhibition at 10 µM: -10%
[2]; [7]
  inhibition at 10 µM: 11%
[3]; [8]
  Quadrant (FIG. 5b): Q4
[4]; rat
  Fibrin % cell toxicity: 0%
[5]; rat
  LPS % cell toxicity: 0%

## CNCCCN1c2ccccc2CCc2ccccc21 [Desipramine hydrochloride, reference compound]
[1]; Rattus norvegicus, Microglia, Table 7, read-out: fib_IC50
  IC50: 1620 nM
[1]; [11]
  inhibition at 10 µM: -2%
[2]; [12]
  inhibition at 10 µM: 83%
[2]; Rattus norvegicus, Microglia, Table 7; read-out: LPS_IC50
  IC50: 2 nM
[3]
  Activity: fib/LPS
[3]; Table 2, screen at 10 μM
  Quadrant (FIG. 5b): Q1
[3]; [13]
  Quadrant (FIG. 5b): Q1
[4]; rat
  Fibrin % cell toxicity: 1%
[5]; rat
  LPS % cell toxicity: 4%

## C[C@]12C=CC(=O)N[C@@H]1CC[C@@H]1[C@@H]2CC[C@]2(C)[C@@H](C(=O)Nc3cc(C(F)(F)F)ccc3C(F)(F)F)CC[C@@H]12 [Dutasteride]
[1]; Rattus norvegicus, Microglia
  inhibition at 10 µM: 7%
[2]; [14]
  inhibition at 10 µM: 22%
[3]
  Quadrant (FIG. 5b): Q4
[4]; rat
  Fibrin % cell toxicity: 1%
[5]; rat
  LPS % cell toxicity: 0%

## Cc1ccccc1OCC(O)CO (stereo not drawn) [Mephenesin]
[1]; [11]
  inhibition at 10 µM: 14%
[2]; [12]
  inhibition at 10 µM: 13%
[3]; [13]
  Quadrant (FIG. 5b): Q4
[4]; rat
  Fibrin % cell toxicity: 0%
[5]; rat
  LPS % cell toxicity: 0%

## C=C[C@H]1C[N@@]2CC[C@H]1C[C@@H]2[C@@H](O)c1ccnc2ccc(OC)cc12 [Quinidine]
[1]; [15]
  inhibition at 10 µM: -6%
[2]; [16]
  inhibition at 10 µM: 20%
[3]; [17]
  Quadrant (FIG. 5b): Q4
[4]; rat
  Fibrin % cell toxicity: 1%
[5]; rat
  LPS % cell toxicity: 0%

## CC(C)(Oc1ccc(C2CC2(Cl)Cl)cc1)C(=O)O (stereo not drawn) [Ciprofibrate]
[1]; [9]
  inhibition at 10 µM: -16%
[2]; [10]
  inhibition at 10 µM: 16%
[3]; primary HTS, 10 μM
  Quadrant (FIG. 5b): Q4
[4]; rat
  Fibrin % cell toxicity: 0%
[5]; rat
  LPS % cell toxicity: 1%

## CC[C@]1(O)C[C@H]2CN(CCc3c([nH]c4ccccc34)[C@@](C(=O)OC)(c3cc4c(cc3OC)N(C=O)[C@H]3[C@@](O)(C(=O)OC)[C@H](OC(C)=O)[C@]5(CC)C=CCN6CC[C@]43[C@@H]65)C2)C1 [Vincristine Sulfate]
[1]; primary microglia HTS, fibrin stimulation, compounds at 10 μM, 10 µM
  Fibrin % inhibition: 108%
[2]; primary microglia HTS, LPS stimulation, compounds at 10 μM; 10 µM
  LPS % inhibition: 119%
[3]; quadrant by fibrin and LPS inhibition, HTS at 10 μM
  Quadrant (FIG. 5b): Q2
[4]; rat
  Fibrin % cell toxicity: 16%
[5]; rat
  LPS % cell toxicity: 7%

## CC(C[N+](C)(C)C)OC(N)=O (stereo not drawn) [Bethanechol]
[1]; [9]
  inhibition at 10 µM: 14%
[2]; [10]
  inhibition at 10 µM: 15%
[3]; primary HTS, 10 μM
  Quadrant (FIG. 5b): Q4
[4]; rat
  Fibrin % cell toxicity: 1%
[5]; rat
  LPS % cell toxicity: 0%

## O=C(O)c1ccccc1 [Benzoic Acid]
[1]; Rattus norvegicus, Microglia
  inhibition at 10 µM: -6%
[2]; [14]
  inhibition at 10 µM: 6%
[3]
  Quadrant (FIG. 5b): Q4
[4]; rat
  Fibrin % cell toxicity: 0%
[5]; rat
  LPS % cell toxicity: 0%

## Vitamin A
[1]; primary microglia HTS, 10 μM, fibrin-stimulated, cell size >800 μm^2 as marker of activation
  Fibrin % inhibition: 15%
[2]; primary microglia HTS, 10 μM, LPS-stimulated, cell size >800 μm^2 as marker of activation
  LPS % inhibition: 17%
[3]; [8]
  Quadrant (FIG. 5b): Q4
[4]
  Fibrin % cell toxicity: 1%
[5]
  LPS % cell toxicity: 0%

## CC(=O)[C@H]1CC[C@H]2[C@@H]3CCC4=CC(=O)CC[C@]4(C)[C@H]3CC[C@]12C [Progesterone]
[1]; [15]
  inhibition at 10 µM: 36%
[2]; [16]
  inhibition at 10 µM: 36%
[3]; [17]
  Quadrant (FIG. 5b): Q4
[4]; rat
  Fibrin % cell toxicity: 1%
[5]; rat
  LPS % cell toxicity: 0%

## N[C@@H](CCC(=O)N[C@@H](CS)C(=O)NCC(=O)O)C(=O)O [Glutathione]
[1]; Rattus norvegicus, Microglia
  inhibition at 10 µM: -5%
[2]; Rattus norvegicus, Microglia, 48 h, read-out: LPS % inhibition
  inhibition at 10 µM: 13%
[3]
  Quadrant (FIG. 5b): Q4
[4]; rat
  Fibrin % cell toxicity: 1%
[5]; rat
  LPS % cell toxicity: 0%
